Laboratory results published in article PMC6063787 (Nature, 2018).

B1: saposin (scaffolding protein, 81 residues) (natural protein)
chain: SLPCDICKDVVTAAGDMLKDNATEEEILVYLEKTCDWLPKPNMSASCKEIVDSYLPVILDIIKGEMSRPGEVCSALNLCESLQ

What was measured:
[1] = target: T1, NfMCU (mitochondrial calcium uniporter ortholog) (Aspergillus fischeri, UniProt A1CWT6); experiment: […] flux block in proteoliposomes of purified NfMCU; format: cell-based
T1 sequence (A1CWT6 76-488): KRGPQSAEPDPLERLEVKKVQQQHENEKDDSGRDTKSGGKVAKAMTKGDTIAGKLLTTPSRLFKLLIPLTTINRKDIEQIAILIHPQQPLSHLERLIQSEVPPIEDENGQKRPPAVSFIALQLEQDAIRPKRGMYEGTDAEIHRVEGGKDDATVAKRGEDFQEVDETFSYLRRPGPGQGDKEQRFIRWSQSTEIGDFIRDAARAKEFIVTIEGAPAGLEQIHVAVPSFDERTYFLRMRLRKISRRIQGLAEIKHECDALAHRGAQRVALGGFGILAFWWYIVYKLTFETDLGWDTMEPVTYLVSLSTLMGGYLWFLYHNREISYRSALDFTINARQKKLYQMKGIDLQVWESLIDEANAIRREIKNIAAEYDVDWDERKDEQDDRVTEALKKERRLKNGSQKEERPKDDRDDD

cryo-EM structure = target: the molecule itself; experiment: cryo-EM structure

Molecule | IC50 [1] | stoichiometry N (cryo-EM structure)
[NH2][Ru-3]([NH2])([NH2])([NH3+])([O]C=O)[O][Ru-2]([NH3+])([NH3+])([NH3+])([NH3+])[O]C=O [Ru360] | 500 nM | –
B1 | – | 6
